Source: ChEMBL document CHEMBL4177534, “Discovery and evaluation of 1H-pyrrolo[2,3-b]pyridine based selective and reversible small molecule BTK inhibitors for the treatment of rheumatoid arthritis” (Bioorg Med Chem Lett, 2017)

Experiments:
[1] = biological target: Serine/threonine-protein kinase Nek11 (Homo sapiens) (UniProt Q8NG66); test: Inhibition of recombinant human full length N-terminal GST-tagged NEK11 expressed in baculovirus infected Sf9 cells assessed as change in enzyme activity at 1 uM in presence of 2 uM ATP relative to control; set-up: scale not given: the % may be the effect or the level left
[2] = Equilibrium aqueous solubility of the compound at pH 2.1; assay type: physicochemical
[3] = biological target: Tyrosine-protein kinase JAK2 (Homo sapiens, UniProt O60674); test: Inhibition of JAK2 (unknown origin)
[4] = biological target: Tyrosine-protein kinase Blk (Homo sapiens) (UniProt P51451); test: Inhibition of recombinant human full length N-terminal GST-tagged BLK expressed in baculovirus infected Sf9 cells assessed as change in enzyme activity at 1 uM in presence of 1 uM ATP relative to control; set-up: scale not given: the % may be the effect or the level left
[5] = biological target: Epidermal growth factor receptor (Homo sapiens) (UniProt P00533); test: Inhibition of recombinant human N-terminal GST-tagged EGFR expressed in baculovirus infected Sf9 cells assessed as change in enzyme activity at 1 uM in presence of 1 uM ATP relative to control; set-up: scale not given: the % may be the effect or the level left
[6] = biological target: Insulin-like growth factor 1 receptor (Homo sapiens) (UniProt P08069); test: Inhibition of recombinant human N-terminal His tagged IGF1R (960 to end residues) expressed in baculovirus infected Sf9 cells assessed as change in enzyme activity at 1 uM in presence of 2 uM ATP relative to control; set-up: scale not given: the % may be the effect or the level left
[7] = biological target: RAC-alpha serine/threonine-protein kinase (Homo sapiens) (UniProt P31749); test: Inhibition of recombinant human full length N-terminal GST-tagged AKT1 expressed in baculovirus infected Sf9 cells assessed as change in enzyme activity at 1 uM in presence of 2 uM ATP relative to control; set-up: scale not given: the % may be the effect or the level left
[8] = biological target: Tyrosine-protein kinase BTK (Homo sapiens, UniProt Q06187); test: Inhibition of human BTK assessed as decrease in […] antibody stimulated BCR mediated CD69 upregulation in whole blood preincubated for 1 hr followed by antibody challenge after 4 hrs by flow cytometry
[9] = biological target: Hepatocyte growth factor receptor (Homo sapiens) (UniProt P08581); test: Inhibition of recombinant human N-terminal GST-tagged MET (956 to end residues) expressed in baculovirus infected Sf9 cells assessed as change in enzyme activity at 1 uM in presence of 1 uM ATP relative to control; set-up: scale not given: the % may be the effect or the level left
[10] = biological target: Serine/threonine-protein kinase VRK1 (Homo sapiens) (UniProt Q99986); test: Inhibition of recombinant human full length N-terminal GST-tagged VRK1 expressed in baculovirus infected Sf9 cells assessed as change in enzyme activity at 1 uM in presence of 2 uM ATP relative to control; set-up: scale not given: the % may be the effect or the level left
[11] = biological target: Mast/stem cell growth factor receptor Kit (Homo sapiens) (UniProt P10721); test: Inhibition of recombinant human N-terminal GST-tagged c-KIT (544 to end residues) expressed in baculovirus infected Sf9 cells assessed as change in enzyme activity at 1 uM in presence of 2 uM ATP relative to control; set-up: scale not given: the % may be the effect or the level left
[12] = biological target: AMPK alpha2/beta1/gamma1 (Homo sapiens) (UniProt P54646+P54619+Q9Y478); test: Inhibition of recombinant human full length C-terminal His tagged AMPKalpha2beta1gamma1 expressed in baculovirus infected Sf9 cells assessed as change in enzyme activity at 1 uM in presence of 2 uM ATP relative to control; set-up: scale not given: the % may be the effect or the level left
[13] = biological target: Mitogen-activated protein kinase 8 (Mus musculus) (UniProt Q91Y86); test: Inhibition of recombinant mouse N-terminal GST-tagged JNK1 expressed in baculovirus infected Sf9 cells assessed as change in enzyme activity at 1 uM in presence of 1 uM ATP relative to control; set-up: scale not given: the % may be the effect or the level left
[14] = biological target: Tyrosine-protein kinase Lck (Homo sapiens) (UniProt P06239); test: Inhibition of recombinant human full length N-terminal GST-tagged LCK expressed in baculovirus infected Sf9 cells assessed as change in enzyme activity at 1 uM in presence of 1 uM ATP relative to control; set-up: scale not given: the % may be the effect or the level left
[15] = biological target: MAP kinase-activated protein kinase 3 (Homo sapiens) (UniProt Q16644); test: Inhibition of recombinant human full length N-terminal GST-tagged MAPKAPK3 expressed in baculovirus infected Sf9 cells assessed as change in enzyme activity at 1 uM in presence of 1 uM ATP relative to control; set-up: scale not given: the % may be the effect or the level left
[16] = biological target: cAMP-dependent protein kinase catalytic subunit alpha (Homo sapiens) (UniProt P17612); test: Inhibition of recombinant human full length N-terminal GST-tagged PKACalpha expressed in baculovirus infected Sf9 cells assessed as change in enzyme activity at 1 uM in presence of 1 uM ATP relative to control; set-up: scale not given: the % may be the effect or the level left
[17] = biological target: Serine/threonine-protein kinase Chk1 (Homo sapiens) (UniProt O14757); test: Inhibition of recombinant human full length N-terminal GST/His tagged CHK1 expressed in baculovirus infected Sf9 cells assessed as change in enzyme activity at 1 uM in presence of 1 uM ATP relative to control; set-up: scale not given: the % may be the effect or the level left
[18] = biological target: Tyrosine-protein kinase JAK1 (Homo sapiens, UniProt P23458); test: Inhibition of JAK1 (unknown origin)
[19] = Oral bioavailability in mouse at 10 mg/kg; assay type: ADME, organism-based; conditions: in vivo
Mus musculus [20] = test: Dose normalized AUC (0 to 24 hrs) in mouse at 10 mg/kg, po; assay type: ADME, organism-based; conditions: in vivo
[21] = biological target: High affinity nerve growth factor receptor (Homo sapiens) (UniProt P04629); test: Inhibition of recombinant human N-terminal GST-tagged TRKA (440 to end residues) expressed in baculovirus infected Sf9 cells assessed as change in enzyme activity at 1 uM in presence of 2 uM ATP relative to control; set-up: scale not given: the % may be the effect or the level left
[22] = biological target: Glycogen synthase kinase-3 beta (Homo sapiens) (UniProt P49841); test: Inhibition of recombinant human full length N-terminal GST/His tagged GSK3beta expressed in baculovirus infected Sf9 cells assessed as change in enzyme activity at 1 uM in presence of 1 uM ATP relative to control; set-up: scale not given: the % may be the effect or the level left
[23] = Equilibrium aqueous solubility of the compound at pH 4; assay type: physicochemical
[24] = biological target: Tyrosine-protein kinase BTK (Mus musculus, UniProt P35991); test: Inhibition of C57BL/6J mouse BTK assessed as decrease in anti-mouse IgM antibody stimulated BCR mediated CD69 upregulation preincubated for 30 mins followed by antibody challenge after 18 to 24 hrs by flow cytometry
[25] = biological target: Platelet-derived growth factor receptor beta (Homo sapiens) (UniProt P09619); test: Inhibition of recombinant human full length N-terminal GST-tagged PDGFRbeta (unknown origin) expressed in baculovirus infected Sf9 cells assessed as change in enzyme activity at 1 uM in presence of 1 uM ATP relative to control; set-up: scale not given: the % may be the effect or the level left
Mus musculus [26] = test: Antiarthritic activity in DBA/1J mouse type-2 collagen-induced arthritis model assessed as reduction in joint histological score immunized with type-2 collagen on day 1 and day 21 followed by LPS challenge on day 28 subsequent compound administration po bid by hematoxylin and eosin staining based assay; assay type: functional, organism-based
Mus musculus [27] = test: Ex-vivo inhibition of BTK in C57BL/6J mouse assessed as anti-mouse IgD antibody stimulated BCR mediated CD69 level in whole blood isolated from 30 mg/kg, po bid treated mouse measured after 24 hrs post first dose by flow cytometry relative to control; assay type: functional; set-up: scale not given: the % may be the effect or the level left

Sequence of Serine/threonine-protein kinase Chk1 (Homo sapiens) (O14757 whole entry): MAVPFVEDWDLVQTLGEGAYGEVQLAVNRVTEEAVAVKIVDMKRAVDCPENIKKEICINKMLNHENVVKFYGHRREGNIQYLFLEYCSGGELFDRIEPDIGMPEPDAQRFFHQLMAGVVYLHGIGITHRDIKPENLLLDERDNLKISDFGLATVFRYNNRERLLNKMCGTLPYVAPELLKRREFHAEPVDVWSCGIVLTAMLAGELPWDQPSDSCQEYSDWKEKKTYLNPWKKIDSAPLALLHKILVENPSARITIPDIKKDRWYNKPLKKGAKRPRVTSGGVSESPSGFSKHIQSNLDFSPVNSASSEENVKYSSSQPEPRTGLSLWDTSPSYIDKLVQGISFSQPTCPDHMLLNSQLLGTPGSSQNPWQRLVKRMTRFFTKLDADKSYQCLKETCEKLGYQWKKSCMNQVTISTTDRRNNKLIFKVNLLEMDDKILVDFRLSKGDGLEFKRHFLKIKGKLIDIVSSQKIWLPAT
Sequence of Serine/threonine-protein kinase Nek11 (Homo sapiens) (Q8NG66 whole entry): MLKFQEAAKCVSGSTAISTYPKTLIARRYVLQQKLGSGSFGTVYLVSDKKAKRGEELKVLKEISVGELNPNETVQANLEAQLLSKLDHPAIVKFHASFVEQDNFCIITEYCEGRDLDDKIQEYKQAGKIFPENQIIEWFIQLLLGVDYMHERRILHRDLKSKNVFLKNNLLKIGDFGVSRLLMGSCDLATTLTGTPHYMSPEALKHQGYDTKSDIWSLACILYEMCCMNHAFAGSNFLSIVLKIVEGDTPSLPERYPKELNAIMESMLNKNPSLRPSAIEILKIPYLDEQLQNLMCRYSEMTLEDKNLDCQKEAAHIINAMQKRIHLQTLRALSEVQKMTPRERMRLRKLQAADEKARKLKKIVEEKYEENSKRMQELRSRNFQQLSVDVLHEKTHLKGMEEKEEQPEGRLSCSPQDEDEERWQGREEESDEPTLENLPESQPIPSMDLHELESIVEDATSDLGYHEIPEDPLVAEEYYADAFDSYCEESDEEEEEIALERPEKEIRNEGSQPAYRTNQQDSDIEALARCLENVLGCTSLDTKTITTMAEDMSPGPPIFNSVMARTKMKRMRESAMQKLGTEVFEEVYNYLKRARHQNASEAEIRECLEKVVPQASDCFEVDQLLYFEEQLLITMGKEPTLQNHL
Sequence of Hepatocyte growth factor receptor (Homo sapiens) (P08581 whole entry): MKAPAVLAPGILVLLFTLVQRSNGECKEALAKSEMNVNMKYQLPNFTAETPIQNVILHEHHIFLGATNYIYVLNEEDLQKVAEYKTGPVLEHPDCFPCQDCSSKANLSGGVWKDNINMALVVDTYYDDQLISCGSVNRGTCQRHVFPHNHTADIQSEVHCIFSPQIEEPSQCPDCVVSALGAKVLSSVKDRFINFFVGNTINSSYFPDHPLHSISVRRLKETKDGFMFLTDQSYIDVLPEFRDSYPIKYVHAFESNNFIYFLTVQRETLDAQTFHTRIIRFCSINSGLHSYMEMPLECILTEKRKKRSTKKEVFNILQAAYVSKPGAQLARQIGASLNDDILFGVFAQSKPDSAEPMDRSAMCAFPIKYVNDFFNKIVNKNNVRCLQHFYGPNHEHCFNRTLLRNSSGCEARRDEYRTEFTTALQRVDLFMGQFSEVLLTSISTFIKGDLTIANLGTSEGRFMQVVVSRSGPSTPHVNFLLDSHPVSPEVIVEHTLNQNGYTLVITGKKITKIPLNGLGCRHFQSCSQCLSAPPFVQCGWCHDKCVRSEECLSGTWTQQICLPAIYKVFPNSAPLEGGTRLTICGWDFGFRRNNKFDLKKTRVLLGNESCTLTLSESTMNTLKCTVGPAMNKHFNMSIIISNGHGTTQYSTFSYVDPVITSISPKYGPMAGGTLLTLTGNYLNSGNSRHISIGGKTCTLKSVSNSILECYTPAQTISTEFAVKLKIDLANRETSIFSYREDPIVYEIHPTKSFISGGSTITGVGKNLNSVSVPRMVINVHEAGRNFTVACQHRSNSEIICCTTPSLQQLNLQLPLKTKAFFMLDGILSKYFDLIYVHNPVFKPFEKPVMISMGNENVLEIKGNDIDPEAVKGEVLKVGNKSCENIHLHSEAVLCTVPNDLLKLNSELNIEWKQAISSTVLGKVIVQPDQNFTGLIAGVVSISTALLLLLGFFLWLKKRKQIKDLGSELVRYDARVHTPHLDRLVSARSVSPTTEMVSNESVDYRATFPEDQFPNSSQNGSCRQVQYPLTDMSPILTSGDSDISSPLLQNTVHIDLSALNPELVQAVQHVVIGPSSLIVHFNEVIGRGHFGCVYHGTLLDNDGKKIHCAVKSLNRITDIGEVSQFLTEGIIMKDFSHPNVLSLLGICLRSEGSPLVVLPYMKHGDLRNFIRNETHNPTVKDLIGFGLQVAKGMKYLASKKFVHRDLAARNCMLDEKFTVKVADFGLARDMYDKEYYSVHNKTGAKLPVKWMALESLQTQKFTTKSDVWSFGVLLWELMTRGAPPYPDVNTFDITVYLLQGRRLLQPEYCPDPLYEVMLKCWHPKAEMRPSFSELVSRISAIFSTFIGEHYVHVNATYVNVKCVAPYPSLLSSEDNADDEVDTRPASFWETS
Sequence of MAP kinase-activated protein kinase 3 (Homo sapiens) (Q16644 whole entry, looked up): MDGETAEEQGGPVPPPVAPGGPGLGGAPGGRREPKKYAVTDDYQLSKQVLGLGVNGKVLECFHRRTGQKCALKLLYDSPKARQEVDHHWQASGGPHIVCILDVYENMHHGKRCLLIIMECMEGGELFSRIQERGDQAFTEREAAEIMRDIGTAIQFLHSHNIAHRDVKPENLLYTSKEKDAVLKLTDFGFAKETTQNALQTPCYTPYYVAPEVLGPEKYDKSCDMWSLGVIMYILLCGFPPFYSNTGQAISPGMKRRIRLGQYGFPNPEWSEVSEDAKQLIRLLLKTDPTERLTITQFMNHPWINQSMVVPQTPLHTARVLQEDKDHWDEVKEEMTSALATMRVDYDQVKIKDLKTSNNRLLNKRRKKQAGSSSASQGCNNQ
Sequence of Tyrosine-protein kinase Lck (Homo sapiens) (P06239 2-509 limits assumed): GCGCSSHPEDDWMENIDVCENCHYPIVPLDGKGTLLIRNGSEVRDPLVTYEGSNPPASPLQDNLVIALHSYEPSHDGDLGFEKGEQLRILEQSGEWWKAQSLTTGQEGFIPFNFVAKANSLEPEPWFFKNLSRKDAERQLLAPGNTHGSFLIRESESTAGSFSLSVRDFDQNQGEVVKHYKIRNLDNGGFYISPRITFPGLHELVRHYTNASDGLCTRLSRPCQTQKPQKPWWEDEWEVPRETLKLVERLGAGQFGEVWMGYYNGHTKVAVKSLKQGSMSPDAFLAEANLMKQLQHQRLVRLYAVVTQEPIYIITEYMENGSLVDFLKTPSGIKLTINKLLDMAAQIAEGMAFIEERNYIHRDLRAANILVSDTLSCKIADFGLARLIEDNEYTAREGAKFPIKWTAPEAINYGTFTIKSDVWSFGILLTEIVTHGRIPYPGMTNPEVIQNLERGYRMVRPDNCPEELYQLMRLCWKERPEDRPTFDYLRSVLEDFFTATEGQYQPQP
Sequence of Mast/stem cell growth factor receptor Kit (Homo sapiens) (P10721 whole entry): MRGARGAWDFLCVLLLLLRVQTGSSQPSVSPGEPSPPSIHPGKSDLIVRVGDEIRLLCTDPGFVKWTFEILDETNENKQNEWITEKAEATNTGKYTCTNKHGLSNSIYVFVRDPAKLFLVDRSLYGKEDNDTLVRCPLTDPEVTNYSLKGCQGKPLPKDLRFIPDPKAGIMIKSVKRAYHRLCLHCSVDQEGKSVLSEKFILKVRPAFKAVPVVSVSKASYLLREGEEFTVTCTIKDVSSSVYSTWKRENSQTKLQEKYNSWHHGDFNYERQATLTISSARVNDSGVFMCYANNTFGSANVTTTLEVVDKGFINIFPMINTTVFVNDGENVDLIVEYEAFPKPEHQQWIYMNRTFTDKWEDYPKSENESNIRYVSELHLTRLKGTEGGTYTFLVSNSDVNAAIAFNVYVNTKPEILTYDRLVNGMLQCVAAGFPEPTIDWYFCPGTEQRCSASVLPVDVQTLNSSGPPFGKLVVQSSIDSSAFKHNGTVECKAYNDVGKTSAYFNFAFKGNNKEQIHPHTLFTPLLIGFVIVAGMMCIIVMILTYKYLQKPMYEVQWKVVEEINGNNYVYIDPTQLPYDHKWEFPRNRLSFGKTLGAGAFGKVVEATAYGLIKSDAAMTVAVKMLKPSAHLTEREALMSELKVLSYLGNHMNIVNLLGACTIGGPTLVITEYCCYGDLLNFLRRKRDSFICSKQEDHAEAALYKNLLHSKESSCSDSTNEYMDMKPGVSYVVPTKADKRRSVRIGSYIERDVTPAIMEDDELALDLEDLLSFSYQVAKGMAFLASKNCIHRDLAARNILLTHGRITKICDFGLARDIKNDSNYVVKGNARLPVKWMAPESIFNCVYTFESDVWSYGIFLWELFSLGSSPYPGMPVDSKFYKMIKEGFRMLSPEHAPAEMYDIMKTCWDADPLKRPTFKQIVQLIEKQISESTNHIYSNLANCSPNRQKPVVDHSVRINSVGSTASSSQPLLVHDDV
Sequence of Glycogen synthase kinase-3 beta (Homo sapiens) (P49841 whole entry, looked up): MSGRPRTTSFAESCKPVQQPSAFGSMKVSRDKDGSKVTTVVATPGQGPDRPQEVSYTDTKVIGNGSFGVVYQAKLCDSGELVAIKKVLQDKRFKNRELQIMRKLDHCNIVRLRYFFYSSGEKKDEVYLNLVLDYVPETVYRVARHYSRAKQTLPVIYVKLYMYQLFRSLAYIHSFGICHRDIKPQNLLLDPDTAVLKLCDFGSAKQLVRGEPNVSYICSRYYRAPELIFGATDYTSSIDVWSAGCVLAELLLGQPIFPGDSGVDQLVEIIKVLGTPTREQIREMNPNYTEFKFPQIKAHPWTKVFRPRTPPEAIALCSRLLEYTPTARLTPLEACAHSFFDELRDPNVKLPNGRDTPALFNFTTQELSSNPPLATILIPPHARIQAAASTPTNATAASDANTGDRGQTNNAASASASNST

What does the source list for `CCN1CCN(Cc2ccc(-c3cc4c(-c5cccc(N6CCOc7cc(C8CC8)cc(F)c7C6=O)c5CO)ccnc4[nH]3)nc2)CC1`?
Activity [1]: -5%; solubility thermodynamic [2]: > 2000 µM; IC50 [3]: > 10000 nM; Activity [4]: 1%; Activity [5]: 2%; Activity [6]: 4%; Activity [7]: -15%; IC50 [8]: 83.5 nM; Activity [9]: -6%; Activity [10]: 1%; Activity [11]: -1%; Activity [12]: 2%; Activity [13]: 1%; Activity [14]: -4%; Activity [15]: -4%; Activity [16]: -2%; Activity [17]: -14%; IC50 [18]: > 10000 nM; bioavailability [19]: 51%; AUC/dose (Mus musculus [20]): 27 µM·h; Activity [21]: -4%; Activity [22]: 2%; solubility thermodynamic [23]: > 2000 µM; IC50 [24]: 8.4 nM; Activity [25]: 2%; Activity (Mus musculus [26]): Dose-dependent effect; Activity (Mus musculus [27]): 47%

For `O=C1c2c(F)cc(C3CC3)cc2OCCN1c1cccc(-c2ccnc3[nH]c(C4=CCN(C5COC5)CC4)cc23)c1CO`, which Activity [1] is on record?
Its Activity is -6%.

And the solubility thermodynamic [2]?
The solubility thermodynamic was > 2000 µM.

What about the IC50 [3] of the same compound?
The IC50 was > 10000 nM.

What about the Activity [4] of the same compound?
The Activity was 3%.

And the Activity [5]?
Its Activity is -1%.

And the Activity [6]?
Its Activity is -6%.

What about the Activity [7] of the same compound?
The Activity was -3%.

And the IC50 [8]?
The IC50 was 261 nM.

What about the Activity [9] of the same compound?
The Activity was 5%.

What about the Activity [10] of the same compound?
The Activity was -8%.

And the Activity [11]?
Its Activity is 0%.

What about the Activity [12] of the same compound?
Its Activity is 1%.

What about the Activity [13] of the same compound?
Its Activity is -4%.

And the Activity [14]?
The Activity was 1%.

What about the Activity [15] of the same compound?
The Activity was 3%.

What about the Activity [16] of the same compound?
Its Activity is 0%.

What about the Activity [17] of the same compound?
The Activity was -3%.

What about the IC50 [18] of the same compound?
The IC50 was > 10000 nM.

What about the bioavailability [19] of the same compound?
Its bioavailability is 49%.

And the AUC/dose (Mus musculus [20])?
The AUC/dose was 25.8 µM·h.

And the Activity [21]?
Its Activity is -10%.

What about the Activity [22] of the same compound?
The Activity was -2%.

And the solubility thermodynamic [23]?
The solubility thermodynamic was > 2000 µM.

And the IC50 [24]?
Its IC50 is 41.9 nM.

What about the Activity [25] of the same compound?
The Activity was -3%.

And the Activity (Mus musculus [26])?
The Activity was “Dose-dependent effect”.

What about the Activity (Mus musculus [27]) of the same compound?
Its Activity is 9.5%.
